How the values were obtained:
Mus musculus [1] = assay: Percent activity against delta selective antinociception when given icv injection at a dose of 10 nmol 20 min before mouse tail flick test; format: functional
Mus musculus [2] = assay: Percent activity against delta selective antinociception when given icv injection at a dose of 10 nmol 20 min before the mouse tail flick test along with 4 nmol ICI 174864; format: functional
[3] = target: Kappa-type opioid receptor (Cavia porcellus, UniProt P41144); assay: Activity was evaluated by inhibition of the binding of 1 nM [3H]U-69593 at Opioid receptor kappa 1 binding site
Mu-type opioid receptor = Mu-type opioid receptor (Bos taurus, UniProt P79350); assay: Activity was evaluated by inhibition of the binding of 0.8 nM [3H]- DAMGO at Opioid receptor mu 1 binding site
Mus musculus [4] = organism: Mus musculus; assay: Antinociceptive action was evaluated by mouse tail flick assay at a dose of 100 nmol in the presence of 3 nmol morphine on 5 mice; format: functional
Mus musculus [5] = organism: Mus musculus; assay: Antinociceptive action was evaluated by mouse tail flick assay at a dose of 300 nmol on 5 mice; format: functional
Mus musculus [6] = organism: Mus musculus; assay: Antinociceptive action was evaluated by mouse tail flick assay at a dose of 100 nmol on 10 mice; format: functional
Mus musculus [7] = organism: Mus musculus; assay: Antinociceptive action was evaluated by mouse tail flick assay at a dose of 100 nmol in the presence of morphine on 9 mice; format: functional
Mus musculus [8] = organism: Mus musculus; assay: Antinociceptive action was evaluated by mouse tail flick assay at a dose of 3 nmol on 9 mice; format: functional
Mus musculus [9] = organism: Mus musculus; assay: Antinociceptive action was evaluated by mouse tail flick assay at a dose of 10 nmol on 5 mice; format: functional

Chain of Mu-type opioid receptor (P79350 whole entry): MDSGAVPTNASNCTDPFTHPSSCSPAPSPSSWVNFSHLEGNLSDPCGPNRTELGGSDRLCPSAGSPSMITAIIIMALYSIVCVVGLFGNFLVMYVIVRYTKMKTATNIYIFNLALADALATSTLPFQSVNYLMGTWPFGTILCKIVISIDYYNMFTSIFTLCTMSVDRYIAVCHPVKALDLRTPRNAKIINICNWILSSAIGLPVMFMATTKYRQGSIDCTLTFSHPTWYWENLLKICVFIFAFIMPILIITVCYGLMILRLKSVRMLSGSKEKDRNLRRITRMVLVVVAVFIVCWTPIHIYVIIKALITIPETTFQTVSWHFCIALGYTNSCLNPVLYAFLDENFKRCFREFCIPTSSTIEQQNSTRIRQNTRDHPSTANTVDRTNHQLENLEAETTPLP
Chain of Kappa-type opioid receptor (P41144 whole entry): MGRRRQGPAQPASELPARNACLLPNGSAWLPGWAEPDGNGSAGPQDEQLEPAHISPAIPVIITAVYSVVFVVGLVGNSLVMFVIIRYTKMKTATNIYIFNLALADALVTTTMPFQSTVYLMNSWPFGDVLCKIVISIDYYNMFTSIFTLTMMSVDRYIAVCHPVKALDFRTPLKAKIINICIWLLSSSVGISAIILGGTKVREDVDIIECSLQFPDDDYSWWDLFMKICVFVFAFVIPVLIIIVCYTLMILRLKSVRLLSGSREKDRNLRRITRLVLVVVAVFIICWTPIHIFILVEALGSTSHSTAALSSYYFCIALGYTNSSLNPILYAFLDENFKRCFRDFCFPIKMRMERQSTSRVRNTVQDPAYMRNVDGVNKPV

| SMILES | Ki [3] | Ki (Mu-type opioid receptor) | other results |
| --- | --- | --- | --- |
| CC1(C)SSC(C)(C)[C@@H](NC(=O)[C@@H](N)Cc2ccc(O)cc2)C(=O)NCC(=O)N[C@@H](Cc2ccccc2)C(=O)N[C@H]1C(=O)O | – | – | Activity (Mus musculus [1]): 55%; Activity (Mus musculus [2]): 5% |
| CNCC12Cc3ccc(O)cc3C(C)(CCC1N)C2 (stereo unspecified) | 51.6 nM | 91.6 nM | – |
| COC[C@]12Cc3ccc(O)cc3[C@](C)(CCc3nnnn31)C2 | > 10000 nM | – | – |
| CN1CNC2CCC3(C)CC2(Cc2ccc(O)cc23)C1 (stereo unspecified) | 17.2 nM | 27.7 nM | – |
| COCC12Cc3ccc(O)cc3[C@](C)(CCCN1C)C2 (single isomer, unassigned) | 795 nM | – | – |
| CN(C)C1CCC2(C)CC1(CO)Cc1ccc(O)cc12 (single isomer, unassigned; (+)) | 2900 nM | 830 nM | – |
| CN(C)C1CCC2(C)CC1(C)Cc1ccc(O)cc12 (single isomer, unassigned; (+)) | 5960 nM | – | – |
| CN1CC23Cc4ccc(O)cc4C(C)(CCC12)C3 (single isomer, unassigned; (+)) | 215 nM | 179 nM | – |
| COCC12Cc3ccc(O)cc3C(C)(CCC1N(C)C)C2 (single isomer, unassigned; (+)) | 123 nM | 25.2 nM | – |
| CNC1CCC2(C)CC1(CO)Cc1ccc(O)cc12 (single isomer, unassigned; (+)) | 440 nM | 42 nM | – |
| CN(C)C1CCC2(C)CC1(C)Cc1ccc(O)cc12 (single isomer, unassigned; (-)) | 409 nM | 297 nM | – |
| CC12CCC(N)C(CO)(Cc3ccc(O)cc31)C2 (single isomer, unassigned; (-)) | 109 nM | 40.6 nM | – |
| COCC12Cc3ccc(O)cc3C(C)(CCC1N(C)C)C2 (single isomer, unassigned; (-)) | 60.9 nM | 19.3 nM | – |
| CNC1CCC2(C)CC1(CO)Cc1ccc(O)cc12 (single isomer, unassigned; (-)) | 650 nM | 380 nM | – |
| COCC12Cc3ccc(O)cc3C(C)(CCC1N)C2 (stereo in doubt; (+)3a) | 80.8 nM | 1.99 nM | Antinociception (Mus musculus [4]): 58%; Antinociception (Mus musculus [5]): 13% |
| CC12CCC(N)C(CO)(Cc3ccc(O)cc31)C2 (stereo in doubt; (+)-3b) | > 10000 nM | 41.2 nM | – |
| COCC12Cc3ccc(O)cc3C(C)(CCC1N)C2 (stereo in doubt; (-)-3a) | 53.1 nM | 2.29 nM | Antinociception (Mus musculus [6]): 37% |
| CN(C)C1CCC2(C)CC1(CO)Cc1ccc(O)cc12 (stereo in doubt; (-)-3c) | 3800 nM | 870 nM | – |
| COCC12Cc3ccc(O)cc3C(C)(CCC1N)C2 (stereo in doubt; (dl)-22) | 6.62 nM | 1.99 nM | Antinociception (Mus musculus [7]): 74% |
| CN1CC[C@]23c4c5ccc(O)c4O[C@H]2[C@@H](O)C=C[C@H]3[C@H]1C5 [MORPHINE] | – | – | Antinociception (Mus musculus [8]): 65%; Antinociception (Mus musculus [9]): 100% |

Source: ChEMBL document CHEMBL1129309, “Asymmetric syntheses, opioid receptor affinities, and antinociceptive effects of 8-amino-5,9-methanobenzocyclooctenes, a new class of structural analogues of the morphine alkaloids” (J Med Chem, 1996)
